Experimental data published in patent US7202265B2, “Indolinone combinatorial libraries and related products and methods for the treatment of disease” (Sugen, Inc., priority 1997, dated 2007).

Test system: human MET
Assay: MET biochemical kinase assay
Design: concentration or dose not given beside the values
Text: (d) MET Biochemical Kinase Assay
A met biochemical kinase assay may be performed for met generally as described above for other kinases by substituting that or the other kinases. In particular, ELISA plates are coated with goat anti-rabbit Fc antibodies, which are used to capture commercially available (from Santa Cruz Biotechnology) rabbit polyclonal antibodies to the cytoplasmic domain of human MET. […] The chimeric receptors, or MET, from these lysates are captured on the antibody coated plates. After washing away extraneous proteins, test compounds are added and an in vitro kinase assay is performed by addition of an appropriate kinase buffer (containing ATP, divalent metal ions, etc.). Incorporation of phosphate into the captured receptors is detected with an anti-phosphotyrosine antibody conjugate with horse radish peroxidase using TMB as a substrate for calorimetric detection.

Compound	Met Kinase % Inhibition [%]
CCOC(=O)CCc1c(C(=O)OCC)[nH]c(C=C2C(=O)Nc3ccc(Br)c(C)c32)c1CC(=O)OCC [10718/C05]	8.7
O=C1Nc2ccc(CCCl)cc2C1=Cc1ccccc1Sc1ccc(Cl)cc1 [10727/G05]	7.1
CCOc1ccc(C=C2C(=O)Nc3ccc(I)cc32)cc1OC [10719/B02]	47.0
COc1cc(OC)c(C=C2C(=O)Nc3ccc(CCCl)cc32)c(OC)c1 [10719/G06]	−18.1
O=C1Nc2ccc(S(=O)(=O)N3CCOCC3)cc2C1=Cc1ccc(O)c(O)c1O [10723/F02]	99.0
O=C1Nc2ccc(S(=O)(=O)Nc3ccc(C(F)(F)F)cc3)cc2C1=Cc1cc([N+](=O)[O-])cc(CCl)c1O [10721/E06]	81.0
O=C1Nc2ccc(S(=O)(=O)N3CCOCC3)cc2C1=Cc1ncc[nH]1 [10720/F11]	1.6
O=C1Nc2ccc(CCCl)cc2C1=Cc1cccs1 [10717/G03]	4.5
CNS(=O)(=O)c1ccc2c(c1)C(=Cc1ccc(C(F)(F)F)cc1)C(=O)N2 [10722/D11]	41.0
CNS(=O)(=O)c1ccc2c(c1)C(=Cc1cc(C(C)(C)C)cc(C(C)(C)C)c1O)C(=O)N2 [10723/D11]	42.0
O=C1Nc2c(Br)cc(Br)cc2C1=Cc1ccccc1Sc1ccc(Cl)cc1 [10727/A05]	29.0
CNS(=O)(=O)c1ccc2c(c1)C(=Cc1ccccc1O)C(=O)N2 [10720/D05]	9.8
CNS(=O)(=O)c1ccc2c(c1)C(=Cc1ccc(Cl)c([N+](=O)[O-])c1)C(=O)N2 [10718/D08]	2.3
CC(C)(C)c1cc(C=C2C(=O)Nc3c(Br)cc(Br)cc32)ccc1O [10721/A09]	23.0
Cc1cc(C=C2C(=O)Nc3c(Br)cc(Br)cc32)oc1C [10730/A11]	91.0
O=C1Nc2ccc(S(=O)(=O)Nc3ccc(C(F)(F)F)cc3)cc2C1=Cc1ccc(Br)o1 [10726/E05]	71.0
COc1cc(OC)c(C=C2C(=O)Nc3c(Br)cc(Br)cc32)c(OC)c1 [10719/A06]	−7.0
O=C1Nc2c(Br)cc(Br)cc2C1=Cc1ccc(F)cc1Cl [10719/A09]	47.0
Cc1cn(C)cc1C=C1C(=O)Nc2ccc(S(=O)(=O)Nc3ccc(C(F)(F)F)cc3)cc21 [10726/E06]	−7.4
O=C1Nc2ccc(CCCl)cc2C1=Cc1ccc(C(=O)O)cc1 [10722/G05]	9.7
O=C1Nc2c(Br)cc(Br)cc2C1=Cc1ccc[nH]1 [10717/A09]	9.4
O=C1Nc2ccc(S(=O)(=O)Nc3ccc(C(F)(F)F)cc3)cc2C1=Cc1ccncc1 [10729/E09]	85.0
O=C1Nc2ccc(S(=O)(=O)Nc3ccc(C(F)(F)F)cc3)cc2C1=Cc1cccn1-c1ccc(Cl)cc1 [10724/E09]	27.0
CCOc1ccccc1C=C1C(=O)Nc2ccc(S(=O)(=O)Nc3ccc(C(F)(F)F)cc3)cc21 [10717/E02]	24.0
N#Cc1ccc(C=C2C(=O)Nc3ccc(S(=O)(=O)N4CCOCC4)cc32)cc1 [10727/F09]	9.3

Compound	Met Kinase % Inhibition [%]
CNS(=O)(=O)c1ccc2c(c1)C(=Cc1[nH]c(Cl)c(CC(=O)OC)c1C(=O)OC)C(=O)N2 [10725/D09]	28.0
CCOC(=O)c1cc(C=C2C(=O)Nc3ccc(Br)c(C)c32)oc1C [10718/C06]	3.9
COC(=O)c1[nH]c(C)c(C=C2C(=O)Nc3ccc(CCCl)cc32)c1C(=O)OC [10718/G07]	52.0
CNS(=O)(=O)c1ccc2c(c1)C(=Cc1ccc(O)c(C(C)(C)C)c1)C(=O)N2 [10721/D09]	−4.9
COc1cc(OC)c(C=C2C(=O)Nc3ccc(S(=O)(=O)Nc4ccc(C(F)(F)F)cc4)cc32)c(OC)c1 [10719/E06]	−4.5
O=C1Nc2ccc(S(=O)(=O)Nc3ccc(C(F)(F)F)cc3)cc2C1=Cc1ccc(C(=O)O)cc1 [10722/E05]	73.0
CCN(CC)c1ccc(C=C2C(=O)Nc3ccc(S(=O)(=O)N4CCOCC4)cc32)cc1 [10727/F02]	52.0
CNS(=O)(=O)c1ccc2c(c1)C(=Cc1sccc1Br)C(=O)N2 [10725/D02]	14.0
O=C1Nc2ccc(CCCl)cc2C1=Cc1ccc(F)cc1Cl [10719/G09]	1.3
CC(C)c1ccc2occ(C=C3C(=O)Nc4ccc(I)cc43)c(=O)c2c1 [10731/B05]	86.0
CCN(CC)c1ccc(C=C2C(=O)Nc3c(Br)cc(Br)cc32)cc1 [10727/A02]	52.0
CNS(=O)(=O)c1ccc2c(c1)C(=Cc1cc(C)c(OCc3ccccc3)c(C)c1)C(=O)N2 [10733/D07]	−6.8
Cc1c(Br)ccc2c1C(=Cc1ccccc1Sc1ccc(Cl)cc1)C(=O)N2 [10727/C05]	8.9
O=C1Nc2ccc(S(=O)(=O)N3CCOCC3)cc2C1=Cc1ccccc1Sc1ccc(Cl)cc1 [10727/F05]	6.0
Cc1c(Br)ccc2c1C(=Cc1ccc(O)cc1O)C(=O)N2 [10723/C08]	83.0
Cc1csc2sc(C=C3C(=O)Nc4ccc(I)cc43)c(C)c12 [10724/B11]	43.0
CNS(=O)(=O)c1ccc2c(c1)C(=Cc1cc([N+](=O)[O-])cc(CCl)c1O)C(=O)N2 [10721/D06]	9.0
COc1ccc(C=C2C(=O)Nc3ccc(S(=O)(=O)Nc4ccc(C(F)(F)F)cc4)cc32)cc1C(C)(C)C [10732/E05]	2.2
O=C1Nc2ccc(I)cc2C1=Cc1cccnc1 [10729/B08]	66.0
CNS(=O)(=O)c1ccc2c(c1)C(=Cc1cc(C(C)C)c(O)c(C(C)C)c1)C(=O)N2 [10724/D06]	23.0
N#Cc1cccc(C=C2C(=O)Nc3ccc(S(=O)(=O)Nc4ccc(C(F)(F)F)cc4)cc32)c1 [10727/E08]	27.0
COC(=O)Cc1c(Cl)[nH]c(C=C2C(=O)Nc3ccc(CCCl)cc32)c1C(=O)OC [10725/G09]	4.7
COc1ccc(OC)c(C=C2C(=O)Nc3ccc(S(=O)(=O)Nc4ccc(C(F)(F)F)cc4)cc32)c1 [10728/E02]	5.4
O=C1Nc2ccc(S(=O)(=O)Nc3ccc(C(F)(F)F)cc3)cc2C1=Cc1c(F)cc(F)cc1F [10720/E02]	18.0
CNS(=O)(=O)c1ccc2c(c1)C(=Cc1cc(Br)cc(Br)c1O)C(=O)N2 [10734/D07]	92.0

Compound	Met Kinase % Inhibition [%]
COc1cc(OC)c(C=C2C(=O)Nc3ccc(S(=O)(=O)N4CCOCC4)cc32)c(OC)c1 [10719/F06]	−22.0
COc1ccc(OC)c(C=C2C(=O)Nc3ccc(CCCl)cc32)c1 [10728/G02]	7.1
O=C1Nc2ccc(CCCl)cc2C1=Cc1ccc(F)cc1C(F)(F)F [10719/G11]	24.0
O=C1Nc2ccc(S(=O)(=O)Nc3ccc(C(F)(F)F)cc3)cc2C1=Cc1cc2c(cc1Cl)OCO2 [10727/E06]	−2.2
CNS(=O)(=O)c1ccc2c(c1)C(=Cc1cc(C)c(OC)c(C)c1)C(=O)N2 [10733/D06]	−19.4
CNS(=O)(=O)c1ccc2c(c1)C(=Cc1ccc(Cl)s1)C(=O)N2 [10721/D07]	−6.8
Cn1cccc1C=C1C(=O)Nc2ccc(I)cc21 [10717/B04]	70.0
O=C1Nc2ccc(S(=O)(=O)Nc3ccc(C(F)(F)F)cc3)cc2C1=Cc1cc(O)c2c(c1O)CCCC2 [10726/E07]	84.0
Cc1cc(C=C2C(=O)Nc3ccc(S(=O)(=O)N4CCOCC4)cc32)cc(C)c1OCc1ccccc1 [10733/F07]	−16.4
CC(C)(C)c1cc(C=C2C(=O)Nc3ccc(S(=O)(=O)Nc4ccc(C(F)(F)F)cc4)cc32)ccc1O [10721/E09]	0.7
O=C1Nc2ccc(I)cc2C1=Cc1ccc(O)c([N+](=O)[O-])c1 [10724/B03]	51.0
CCc1cc(CC)c(C=C2C(=O)Nc3ccc(S(=O)(=O)NC)cc32)[nH]1 [10727/D03]	24.0
Cc1cc(C=C2C(=O)Nc3ccc(S(=O)(=O)Nc4ccc(C(F)(F)F)cc4)cc32)cc(C)c1OCc1ccccc1 [10733/E07]	−10.1
CC(C)(C)c1cc(C=C2C(=O)Nc3ccc(CCCl)cc32)cc(Br)c1O [10721/G10]	12.0
COc1cccc(C=C2C(=O)Nc3ccc(CCCl)cc32)c1OC [10727/G11]	−0.8
CC(C)(C)c1cc(C=C2C(=O)Nc3ccc(I)cc32)cc(C(C)(C)C)c1O [10721/B11]	6.7
CNS(=O)(=O)c1ccc2c(c1)C(=Cc1ccc(O)c(Br)c1)C(=O)N2 [10734/D09]	88.0
COc1c(C)cc(C=C2C(=O)Nc3ccc(CCCl)cc32)cc1C [10733/G06]	0.8
CCOc1cccc(C=C2C(=O)Nc3ccc(S(=O)(=O)N4CCOCC4)cc32)c1O [10734/F02]	55.0
O=C1Nc2ccc(CCCl)cc2C1=Cc1csc([N+](=O)[O-])c1 [10722/G09]	51.0
O=C1Nc2ccc(S(=O)(=O)Nc3ccc(C(F)(F)F)cc3)cc2C1=Cc1ncc[nH]1 [10720/E11]	−10.4
CCN(CC)c1ccc(C=C2C(=O)Nc3ccc(S(=O)(=O)Nc4ccc(C(F)(F)F)cc4)cc32)cc1 [10727/E02]	28.0
O=C1Nc2c(Br)cc(Br)cc2C1=Cc1coc2ccc(Cl)cc2c1=O [10730/A06]	61.0
CC(C)(C)c1cc(C=C2C(=O)Nc3ccc(CCCl)cc32)cc([N+](=O)[O-])c1O [10722/G02]	43.0
